Source: patent US12442827B2 (UNIVERSITY OF NORTH TEXAS HEALTH SCIENCE CENTER AT FORT …, priority 2019, dated 2025)

B1: PIP: hormonally regulated protein, a 17-kDa glycoprotein (protein, UniProt P12273 29-146, looked up)
Prolactin-inducible protein: QDNTRKIIIKNFDIPKSVRPNDEVTAVLAVQTELKECMVVKTYLISSIPLQGAFNYKYTACLCDDNPKTFYWDFYTNRTVQIAAVVDVIRELGICPDDAAVIPIKNNRFYTIEILKVE

Key:
Assay type in all cases: cell-based, human
[1] = tested on: HCFs; assay: LH/FSH ratio in 3D constructs after DHEA, Estrone, Estriol stimulation (Western blot); conditions: HCFs (cells from Healthy individuals), 4 weeks, FIGS. 9A to 9C
Excerpt: (§1) In FIGS. 9A to 9C, healthy corneas were obtained from the National Disease Research Interchange (NDRI). KC corneas were obtained from individuals immediately following corneal transplantation. Inclusion/exclusion criteria for healthy controls required absence of ophthalmic disease, diabetes, or infectious conditions. Tissue from KC patients who had previously undergone collagen crosslinking was excluded. Corneal stromal cells were isolated from healthy (HCFs) and KC (HKCs) corneas. Both HCFs and HKCs were isolated as previously described. Briefly, using a surgical scalpel, the corneal epithelium and endothelium were removed. The corneal stroma was then washed in sterile PBS, cut into small pieces (approximately 2×2 mm), and placed into flasks; the cells were then allowed to adhere. Explants were grown for 2-4 weeks at 37° C./5% CO2/95% relative humidity, using Eagle's Minimum Essential Media (EMEM) supplemented with 10% fetal bovine serum (Atlanta Biologicals, Flowery Branch, GA, USA), and antibiotic/antimycotic (Anti/Anti, Life Technologies, Grand Island, NY, USA). Once confluent, cells were isolated following trypsinization, subcultured, or frozen using standard cryoprotective protocols. Three-dimensional constructs: —HCFs and HKCs were plated at a density of 1×10^6 cells/well on six-well size polycarbonate membrane inserts with 0.4-μm pores (VWR, Radnor, PA, USA). The cells were cultured in EMEM containing 10% FBS, 1% antibiotic, and stimulated with a stable Vitamin C derivative (0.5 mM 2-O-α-D-glucopyranosyl-L-ascorbic acid: Sigma-Aldrich, St. Louis, MO, USA). Cultures were grown for a total of 4 weeks and fresh media was supplied every other day for the duration of the study. Protein extraction and further analysis occurred at the 4-week timepoint.
(§2) All cultures were collected and washed twice with PBS, and total protein was isolated using 1× radioimmunoprecipitation assay (RIPA) buffer (50 mM Tris pH 8, 150 mM NaCl, 1% Triton X-100, and 0.1% SDS) containing a protease inhibitor cocktail (Sigma-Aldrich, St. Louis, MO, USA). Cell lysates were centrifuged at 4° C., and the supernatant was isolated and subjected to a Pierce BCA Protein assay (ThermoScientific, Rockford, IL, USA) for protein concentration quantification. Novex 4-20% Tris-glycine mini WedgeWell format 12-well gels (FisherScientific, Hampton, NH, USA) were electrophoresed at 130 V for 1.5 h, and transferred onto a nitrocellulose membrane at 100 V for 1 hour on ice. B lots were blocked in 5% dry milk (Great Value, Bentonville, AR, USA) for 1 h, at room temperature, with shaking. […] Results were analyzed by normalizing values to the expression of housekeeping antibody β-Actin (Abcam, Cambridge, MA, USA).

[2] = tested on: HKCs; assay: as above; conditions: HKCs (cells from Keratoconus patients), 4 weeks, FIGS. 9A to 9C
Excerpt: as §1, §2

[3] = tested on: KC cells (HKCs); assay: LH/FSH ratio after PIP treatment (Western blot); conditions: PIP 50-500 ng/ml, 48 hours, in a concentration dependent manner, FIG. 12
Procedure: (§3) In FIG. 12, HCFs and HKCs were seeded in 12-well plates at 5×10^5 cells/well in regular media. 24 hours later media was replaced for treatment media (regular media supplemented with the treatment). The treatments consisted on five different concentrations of PIP: 50 ng/ml, 100 ng/ml, 200 ng/ml, 350 ng/ml and 500 ng/ml at a number of four wells per treatment. After 48 hours treatment finished and all the wells were wash with PBS and proteins were extracted using 1 ml of RIPA buffer 1×. Bradford assay (Thermo scientific, IL, USA) was carried out to determine the protein concentration and normalize the samples. For western blot analysis samples were mixed with loading buffer and equal amounts of protein were loaded (25 μg per lane) on a 4-20% Tris-Glycine gel (Novex, Life technologies, Carlsbad, CA) and electrophoresed at 135-140V for 1.5 hour. Each sample was run single. T hereafter, the gel was transferred on to a nitrocellulose membrane (Novex, Nitrocellulose membrane, Life Technologies, Carlsbad, CA), at 100V for 1 hour on ice. Finally, the membranes were blocked in milk (5% milk in TBST; Thermo scientific, IL, USA) for 1 hour and incubated overnight in the rocker at 4° C. with the primary antibody at 1:250 dilution. […] GAPDH (rabbit polyclonal ab9485, Abcam, Cambridge, MA) was used as housekeeping for all the targets at a dilution of 1:1000. […]

[4] = tested on: Healthy cells (HCFs); assay: LH/FSH ratio after PIP treatment (Western blot); conditions: PIP 50-500 ng/ml, 48 hours, in a concentration dependent manner, FIG. 12
Procedure: as §3

Row | Molecule | LH/FSH ratio modulated in vitro [1] | LH/FSH ratio modulated in vitro [2] | LH/FSH ratio modulation [3] | LH/FSH ratio modulation [4]
1 | C[C@]12CC[C@H](O)CC1=CC[C@@H]1[C@@H]2CC[C@]2(C)C(=O)CC[C@@H]12 [DHEA] | moving towards a disease-phenotype | “recovering” towards a healthy phenotype | – | –
2 | C[C@]12CC[C@@H]3c4ccc(O)cc4CC[C@H]3[C@@H]1C[C@@H](O)[C@@H]2O [Estriol] | moving towards a disease-phenotype | “recovering” towards a healthy phenotype | – | –
3 | B1 | – | – | modulated | modulated
